Results published in US4931462A, “Heterocyclic substituted alkylsulphonamides pharmaceutical compositions containing them, and arterial disease treatment therewith” (Boehringer Mannheim GmbH, priority 1987, dated 1990).

Tests used:
[1] = test system: thrombocyte aggregation (TX antagonistic effect); assay: TX antagonistic effect: inhibition of U 46619-induced thrombocyte aggregation in platelet-rich plasma of healthy blood donors (Born and Cross); assay type: cell-based; settings: Erythrocyte, 5 min; U 46619-induced aggregation, human platelet-rich plasma, citrate, followed over 5 minutes; read-out: Human Erythrocytes IC50
Text: 1. TX Antagonistic Effect of Human Erythrocytes
The thrombocyte aggregation is investigated by the method of Born and Cross (J. Physiol. 168, 178 (1963) in platelet-rich plasma of healthy blood donors. To inhibit clotting, the blood is mixed with 3.2% citrate in a ratio by volume of 1:9.
To induce thrombocyte aggregation, U 46619 (Upjohn & Co., Kalamazoo, U.S.A.), which is a stable analog of the prostaglandin endoperoxide […], is used. U 46619 was characterized as a selective thromboxane mimetic (Coleman et al., Brit. J. Pharmacol. 68, 127 P., 1980).
The aggregation test is carried out in a 4-channel aggregometer (Profiler® of the Bio/Data Co., U.S.A.). The course of the aggregation is followed over a period of 5 minutes. At the end of the test, the degree of aggregation attained is printed out. These values, which are obtained in the presence of different concentrations of the substance to be tested, are used for the determination of the EC50 for the TX antagonistic effect. The effectiveness varies inversely with the EC50 value.

[2] = test system: U 46619-induced pulmonary embolism; assay: Preventing the U 46619-induced pulmonary embolism (survival rate of mouse); assay type: in vivo, mouse (male NMRI); settings: lethal U 46619 (800-1000 μg/kg) into tail vein after 4 hours, survivors/animals used; for Survival Rate of Mouse 25 mg/kg, 4 h: 25 mg/kg by stomach tube in 1% methylcellulose; for Survival Rate of Mouse 1 mg/kg, 4 h: 1 mg/kg by stomach tube in 1% methylcellulose
Description: 2. Preventing the U 46619-Induced Pulmonary Embolism
Male NMRI mice, with a body weight of 25 g. are used. The test substance is suspended in 1% methylcellulose and administered to the experimental animals with the help of a stomach tube. The provocation test consists of injecting the lethal dose (800-1000 μg/kg) of the thromboxane mimetic (U 46619 of the Upjohn Co.) rapidly into the tail vein. The duration of the specific antagonistic effect is tested by pretreating the animals with 25 mg or 1 mg/kg of the different test substances and injecting U 46619 after 4 hours. The survival rate indicates how many of the animals used have survived the injection of the thromboxane mimetic.

SMILES | IC50 [1] [nM] | Survival Rate of Mouse 25 mg/kg, 4 h [2] | Survival Rate of Mouse 1 mg/kg, 4 h [2]
Cc1ccc(S(=O)(=O)NCCc2ccc3oc(C(=O)O)cc3c2)cc1 [12 b] | 1600 | 4/5 | 
O=C(O)COc1ccc(CCNS(=O)(=O)c2ccccc2)cc1 [Comparison Compound, 4-[2-(benzenesulfonylamino)-ethyl]-7-phenoxyacetic acid, reference compound] | 1850 | 2/2 | 
Cc1c(C(=O)O)oc2ccc(CCNS(=O)(=O)c3ccc(Cl)cc3)cc12 [12 g] | 1700 | 5/5 | 
O=C(O)c1cc2cc(CCNS(=O)(=O)c3ccc(Cl)cc3)ccc2[nH]1 [12 l] | 1400 |  | 2/5
O=C(O)c1cc2cc(CCNS(=O)(=O)c3ccc(Cl)cc3)ccc2o1 [Example 11, 5-[2-(4-Chlorobenzenesulphonamido)-ethyl]-benzo[b]-furan-2-carboxylic acid] | 750 | 10/10 | 4/5
O=C(O)c1cc2cc(CCNS(=O)(=O)c3ccc(Br)cc3)ccc2o1 [12 e] | 2700 | 5/5 | 
O=C(O)C1Cc2cc(CCNS(=O)(=O)c3ccccc3)ccc2O1 (stereo not drawn) [Example 13, 5-(2-Benzenesulphonamidoethyl)-2,3-dihydrobenzo[b]furan-2-carboxylic acid] | 1200 | 5/5 | 
